Source: patent US5563121A, “Peptide linkage unit” (priority 1994, dated 1996)
*1 amine or outer side, *2 acyl side, *3 side chain or, on linkers, in order; H or OH if unused. Where a SMILES comes first, the peptide text is derived from it. [ ]: non-standard residue; d: D form. X1 = O=C([C@@H]1CCCN1CP(=O)(O)C(Cc1ccccc1)N[*:1])[*:2]

Target: T1, Synthetic HIV-1 proteinase (Human immunodeficiency virus type 1 group M subtype B, UniProt P03369)
T1 construct: Synthetic HIV-1 proteinase; made in house; host or cells: chemical synthesis (no expression host); gift of Dr. Stephen Kent, The Scripps Research Institute
Assay: HPLC assay of HIV-1 PR inhibition
Assay type: biochemical
Conditions: HIV substrate IV, pH 6.2, 25° C.
Method: Typical reactions were carried out at room temperature (25° C.) in 150 μl total volumes of 100 mM MES buffer, pH 6.2, containing 1 mM ethylenediaminetetra-acetic acid (EDTA) and 2 mM dithiothreitol (DTT) plus 0.1 percent (v/v) Triton X-100.
Synthetic HIV-1 proteinase [0.5 μg, obtained from Dr. Stephen Kent of The Scripps Research Institute; see Cell, 54:363-368 (July 29, 1988)] was first incubated in buffer with (or without) various concentrations of "inhibitor(s)" for 30 minutes at 25° C. The proteinase reaction was then initiated by the addition of HIV substrate IV (Bachem Bioscience Inc.) at fixed concentrations. HIV Substrate IV has the sequence
Lys-Ala-Arg-Val-Nle-p-NO2 Phe-Glu-Ala-Nle-NH2 (SEQ ID NO: 32).
At three appropriate times (normally 15, 30 and 45 minutes) the hydrolysis was stopped by adding a 40 μl aliquot from the reaction to 40 μl of a prepared quench solution. The quench solution was 1:4 acetonitrile:water (3 percent trifluoroacetic acid; TFA) and contained 150 μM m-toluic acid which served as an HPLC standard. […] Reaction progress was monitored by following the increasing absorbance (peak height) of the substrate IV cleavage product detected at […].

CC[C@H](C)[C@H](NC(=O)[C@@H]1CCCN1CP(=O)(O)C(Cc1ccccc1)NC(=O)[C@H](CC(N)=O)NC(=O)[C@H](CC(C)C)NC(=O)[C@H](CO)NC(C)=O)C(=O)N[C@H](C(=O)OC)C(C)C (stereo partly drawn) [Compound 6, CH3 C(O)-Ser-Leu-Asn-Phe.psi.[PO2^- CH2 NH^+ ]Pro-Ile-Val-OCH3] (Ac-SLN[X1]IV-OMe)
Ki (one stereoisomer of Compound 6): ~600 µM
Ki (the other (more active) isomer of Compound 6): ~0.01 µM
